From US20250230147A1, “LACTAMS AS CBL-B INHIBITORS” (Genentech, Inc., priority 2021, published 2025)
pIC50: −log10 of the molar value. Counter-ions that a name gives are not always drawn.

Assays:
Cbl-b = Cbl-b (Homo sapiens (Human), UniProt Q13191); assay: Cbl-b LCK Ub TR-FRET assay (Cbl-b Lck HTRF); format: biochemical
In short: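 TR-FRET (340 nm excitation, 615/665 nm emission) read after adding HA-ubiquitin–UBE2D2 thioester, anti-HA-D2 and streptavidin-Eu. Beforehand, compounds incubated 60 min with biotinylated Cbl-b, then 90 min with His-LCK and ATP (1 mM in 2× mix); IC50 from 10 concentrations, DMSO high and no-LCK low controls.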

c-Cbl = c-Cbl (Homo sapiens (Human), UniProt P22681); assay: C-Cbl LCK Ub TR-FRET assay (c-cbl Lck HTRF); format: biochemical; settings: for (fold-selectivity): C-cbl Lck HTRF IC50 relative to Cbl-b Lck HTRF IC50
In short: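 After the ubiquitination reaction, detection mixture was added and plates incubated 20 min at room temperature before reading. IC50 values were calculated with wells lacking LCK as the low control and DMSO as the high control.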

Sequence of c-Cbl (P22681 47-435): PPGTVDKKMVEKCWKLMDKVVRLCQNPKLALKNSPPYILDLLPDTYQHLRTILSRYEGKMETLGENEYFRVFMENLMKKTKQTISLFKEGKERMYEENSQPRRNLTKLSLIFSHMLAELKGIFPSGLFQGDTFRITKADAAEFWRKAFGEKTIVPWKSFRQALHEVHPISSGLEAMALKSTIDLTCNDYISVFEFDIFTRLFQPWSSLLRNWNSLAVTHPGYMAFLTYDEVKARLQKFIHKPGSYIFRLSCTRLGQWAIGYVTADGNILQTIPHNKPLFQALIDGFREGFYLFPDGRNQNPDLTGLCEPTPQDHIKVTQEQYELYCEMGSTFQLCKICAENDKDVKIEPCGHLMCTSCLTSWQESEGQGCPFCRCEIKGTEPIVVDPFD
Sequence of Cbl-b (Q13191 40-426): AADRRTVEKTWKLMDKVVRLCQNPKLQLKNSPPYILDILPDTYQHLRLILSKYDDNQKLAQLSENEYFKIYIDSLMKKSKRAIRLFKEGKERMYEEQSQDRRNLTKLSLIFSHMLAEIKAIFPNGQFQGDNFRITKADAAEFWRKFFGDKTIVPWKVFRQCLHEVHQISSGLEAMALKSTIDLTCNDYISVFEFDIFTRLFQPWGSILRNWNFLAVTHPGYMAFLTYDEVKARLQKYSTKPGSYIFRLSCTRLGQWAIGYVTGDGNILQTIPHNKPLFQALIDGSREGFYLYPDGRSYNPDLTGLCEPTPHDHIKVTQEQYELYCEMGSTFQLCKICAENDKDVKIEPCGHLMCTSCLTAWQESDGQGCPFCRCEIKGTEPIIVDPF

SMILES	pIC50 (Cbl-b)	pIC50 (c-Cbl)	(fold-selectivity) (c-Cbl)
CC[C@@H](C)Nc1cc(C2(Cc3nncn3C)COC2)cc(N2Cc3c(cccc3C(F)(F)F)C2=O)n1 [Compound 482, (R)-2-(6-(sec-butylamino)-4-(3-((4-methyl-4H-1,2,4-triazol-3-yl)methyl)oxetan-3-yl)pyridin-2-yl)-4-(trifluoromethyl)isoindolin-1-one]	6.68	6.39	(1.9x)
Cn1cnnc1CC1(c2cccc(N3Cc4c(cc(CNCC5CCOC5)cc4C(F)(F)F)C3=O)c2)CC(F)(F)C1 (centres unmarked) [Compound 358, 2-(3-(3,3-difluoro-1-((4-methyl-4H-1,2,4-triazol-3-yl)methyl)cyclobutyl)phenyl)-6-((((tetrahydrofuran-3-yl)methyl)amino)methyl)-4-(trifluoromethyl)isoindolin-1-one formate]	7.80	7.82	
CC(C)[C@H]1CN(C)CCN1C(C)c1cc2c(c(C(F)(F)F)c1)CN(c1cccc(C3([C@@H](F)c4nncn4C)CC(F)(F)C3)c1)C2=O (stereo partly drawn) [Compound 388, 2-(3-(3,3-difluoro-1-((R)-fluoro(4-methyl-4H-1,2,4-triazol-3-yl)methyl)cyclobutyl)phenyl)-6-(1-((S)-2-isopropyl-4-methylpiperazin-1-yl)ethyl)-4-(trifluoromethyl)isoindolin-1-one]	7.34	7.20	(1.4x)
Cn1cnnc1[C@@H](F)C1(c2cccc(N3Cc4c(cc(CN5CC6(CC6)C5)cc4C(F)(F)F)C3=O)c2)COC1 [Compound 79]	6.77	6.57	1.6x
Cn1cnnc1[C@@H](F)C1(c2cccc(N3Cc4c(cc(CNCC5CC5)cc4C(F)(F)F)C3=O)c2)CC(F)(F)C1 [Compound 450, (S)-6-(((cyclopropylmethyl)amino)methyl)-2-(3-(3,3-difluoro-1-(fluoro(4-methyl-4H-1,2,4-triazol-3-yl)methyl)cyclobutyl)phenyl)-4-(trifluoromethyl)isoindolin-1-one]	7.82	7.85	(0.95x)
CC[C@H]1CC[C@@H](c2cc3c(c(C(F)(F)F)c2)CN(c2cccc(C4(Cc5nncn5C)CC(F)(F)C4)c2)C3=O)N1 [Compound 475, 2-(3-(3,3-difluoro-1-((4-methyl-4H-1,2,4-triazol-3-yl)methyl)cyclobutyl)phenyl)-6-((2S,5S)-5-ethylpyrrolidin-2-yl)-4-(trifluoromethyl)isoindolin-1-one]	7.27	7.16	(1.3x)
Cn1cnnc1CC1(c2cccc(N3Cc4c(cc(C5CCNC5)cc4C(F)(F)F)C3=O)c2)COC1.O=CO (racemic) [Compound 50, (±)-2-(3-(3-((4-methyl-4H-1,2,4-triazol-3-yl)methyl)oxetan-3-yl)phenyl)-6-(pyrrolidin-3-yl)-4-(trifluoromethyl)isoindolin-1-one formate]	7.27	7.05	1.7x
Cn1cnnc1CC1(c2cc(NCC(F)(F)CO)nc(N3Cc4c(cc(CNC5(C)CCC5)cc4C(F)(F)F)C3=O)c2)CCC1 [Compound 317, 2-(6-((2,2-difluoro-3-hydroxypropyl)amino)-4-(1-((4-methyl-4H-1,2,4-triazol-3-yl)methyl)cyclobutyl)pyridin-2-yl)-6-(((1-methylcyclobutyl)amino)methyl)-4-(trifluoromethyl)isoindolin-1-one]	7.66	7.57	(1.2x)
CC[C@H](C)Nc1cc(C2(Cc3nncn3C)COC2)cc(N2Cc3c(cccc3C(F)(F)F)C2=O)n1 [Compound 481, (S)-2-(6-(sec-butylamino)-4-(3-((4-methyl-4H-1,2,4-triazol-3-yl)methyl)oxetan-3-yl)pyridin-2-yl)-4-(trifluoromethyl)isoindolin-1-one]	6.96	6.38	(3.7x)
CC(C)[C@H]1CN(C)CCN1Cc1cc2c(c(C(F)(F)F)c1)CN(c1cccc(C3([C@H](F)c4nncn4-c4ccccc4)COC3)c1)C2=O [Compound 260, 2-(3-(3-((S)-fluoro(4-phenyl-4H-1,2,4-triazol-3-yl)methyl)oxetan-3-yl)phenyl)-6-(((S)-2-isopropyl-4-methylpiperazin-1-yl)methyl)-4-(trifluoromethyl)isoindolin-1-one]	5.25	5.08	(1.5x)
CN1CCN(Cc2cc3c(c(C(F)(F)F)c2)CN(c2cccc(C4(Cc5nncn5C)CC(F)(F)C4)c2)C3=O)[C@H](C2CC2)C1 [Compound 433, (R)-6-((2-cyclopropyl-4-methylpiperazin-1-yl)methyl)-2-(3-(3,3-difluoro-1-((4-methyl-4H-1,2,4-triazol-3-yl)methyl)cyclobutyl)phenyl)-4-(trifluoromethyl)isoindolin-1-one]	7.03	6.92	(1.3x)
Cn1cnnc1[C@H](F)C1(c2cccc(N3Cc4c(cc(CN5CC(C)(O)C5)cc4C(F)(F)F)C3=O)c2)CC(F)(F)C1 [Compound 51, (R)-2-(3-(3,3-difluoro-1-(fluoro(4-methyl-4H-1,2,4-triazol-3-yl)methyl)cyclobutyl)-phenyl)-6-((3-hydroxy-3-methylazetidin-1-yl)methyl)-4-(trifluoromethyl)isoindolin-1-one]	7.21	6.82	2.4x
Cn1cnnc1CC1(c2cccc(N3Cc4c(cc(CN5CCN[C@H](C6CC6)C5)cc4C(F)(F)F)C3=O)c2)CC(F)(F)C1 [Compound 430, (R)-6-((3-cyclopropylpiperazin-1-yl)methyl)-2-(3-(3,3-difluoro-1-((4-methyl-4H-1,2,4-triazol-3-yl)methyl)cyclobutyl)phenyl)-4-(trifluoromethyl)isoindolin-1-one]	7.37	7.46	(0.80x)
Cn1cnnc1CC(F)(F)c1cccc(N2Cc3c(cccc3C(F)(F)F)C2=O)c1 [Compound 15, 2-(3-(1,1-difluoro-2-(4-methyl-4H-1,2,4-triazol-3-yl)ethyl)phenyl)-4-(trifluoromethyl)isoindolin-1-one]	5.46	5.19	1.8x
CC[C@@H](C)NCc1cc2c(c(C(F)(F)F)c1)CN(c1cccc(C3(Cc4nncn4C)CC(F)(F)C3)c1)C2=O [Compound 370, (R)-6-((sec-butylamino)methyl)-2-(3-(3,3-difluoro-1-((4-methyl-4H-1,2,4-triazol-3-yl)methyl)cyclobutyl)phenyl)-4-(trifluoromethyl)isoindolin-1-one]	7.21	7.20	(1.0x)
COCC1(F)CN(Cc2cc3c(c(C(F)(F)F)c2)CN(c2cccc(C4([C@@H](F)c5nncn5C)COC4)c2)C3=O)C1 [Compound 135, (R)-2-(3-(3-(fluoro(4-methyl-4H-1,2,4-triazol-3-yl)methyl)oxetan-3-yl)phenyl)-6-((3-fluoro-3-(methoxymethyl)azetidin-1-yl)methyl)-4-(trifluoromethyl)isoindolin-1-one]	7.02	6.74	1.9x
CC(C)CNc1cc(C2(Cc3nncn3C)CCC2)cc(N2Cc3c(cc(CNC4(C)CCC4)cc3C(F)(F)F)C2=O)n1 [Compound 348, 2-(6-(isobutylamino)-4-(1-((4-methyl-4H-1,2,4-triazol-3-yl)methyl)cyclobutyl)pyridin-2-yl)-6-(((1-methylcyclobutyl)amino)methyl)-4-(trifluoromethyl)isoindolin-1-one]	7.89	7.89	(1.0x)
CC(C)Nc1cc(C2(Cc3nncn3C)CCC2)cc(N2Cc3c(cc(CN4CCN(C)C[C@@H]4C(C)C)cc3C(F)(F)F)C2=O)n1 [Compound 409, (S)-6-((2-isopropyl-4-methylpiperazin-1-yl)methyl)-2-(6-(isopropylamino)-4-(1-((4-methyl-4H-1,2,4-triazol-3-yl)methyl)cyclobutyl)pyridin-2-yl)-4-(trifluoromethyl)isoindolin-1-one]	7.92	8.23	(0.48x)
C[C@H](N)c1cc2c(c(C(F)(F)F)c1)CN(c1cccc(C3([C@@H](F)c4nncn4C)COC3)c1)C2=O [Compound 192, 6-((S)-1-aminoethyl)-2-(3-(3-((R)-fluoro(4-methyl-4H-1,2,4-triazol-3-yl)methyl)oxetan-3-yl)phenyl)-4-(trifluoromethyl)isoindolin-1-one]	7.49	7.28	1.6x
Cn1cnnc1CC1(c2cccc(N3Cc4c(cc(CNCC5CC5)cc4C(F)(F)F)C3=O)c2)CC(F)(F)C1 [Compound 334, 6-(((cyclopropylmethyl)amino)methyl)-2-(3-(3,3-difluoro-1-((4-methyl-4H-1,2,4-triazol-3-yl)methyl)cyclobutyl)phenyl)-4-(trifluoromethyl)isoindolin-1-one]	7.96	8.09	(0.72) x
CCOc1cc(N2Cc3c(cc(CNC4(C)CCC4)cc3C(F)(F)F)C2=O)cc(C2(Cc3nncn3C)COC2)c1 [Compound 473, 2-(3-ethoxy-5-(3-((4-methyl-4H-1,2,4-triazol-3-yl)methyl)oxetan-3-yl)phenyl)-6-(((1-methylcyclobutyl)amino)methyl)-4-(trifluoromethyl)isoindolin-1-one]	7.82	7.77	(1.2x)
CC(C)[C@@H]1CN(Cc2cc3c(c(C(F)(F)F)c2)CN(c2cccc(C4([C@H](F)c5nncn5C)COC4)c2)C3=O)CCN1 [Compound 93, 2-(3-(3-((S)-fluoro(4-methyl-4H-1,2,4-triazol-3-yl)methyl)oxetan-3-yl)phenyl)-6-(((R)-3-isopropylpiperazin-1-yl)methyl)-4-(trifluoromethyl)isoindolin-1-one]	7.17	7.11	1.1x
